In PubChem BioAssay (NCI):
Several values for one entry are separate records, joined by “and”; a condition that tells them apart may be missing. Equal values may be shown once.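 Tested at 5 concentrations; 48 h exposure; 96-well plates; endpoints linearly interpolated, else capped at highest concentration. Abbreviation: GI50, concentration required for 50% inhibition of growth. TGI is the concentration that stops growth completely.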

How the values were obtained:
Experiment in all cases: growth of human tumour cells (NCI), 48 h; in the data active = GI50 below about 0.43 µM; inactive = the rest
786-0 renal = test system: 786-0 renal
A498 renal = test system: A498 renal
A549 NSCLC = test system: A549 NSCLC
ACHN renal = test system: ACHN renal
BT-549 breast = test system: BT-549 breast
CAKI-1 renal = test system: CAKI-1 renal
CCRF-CEM leukemia = test system: CCRF-CEM leukemia
COLO 205 colon = test system: COLO 205 colon
DU-145 prostate = test system: DU-145 prostate
EKVX NSCLC = test system: EKVX NSCLC
HCC-2998 colon = test system: HCC-2998 colon
HCT-116 colon = test system: HCT-116 colon
HCT-15 colon = test system: HCT-15 colon
HL-60(TB) leukemia = test system: HL-60(TB) leukemia
HOP-62 NSCLC = test system: HOP-62 NSCLC
HOP-92 NSCLC = test system: HOP-92 NSCLC
HS 578T breast = test system: HS 578T breast
HT29 colon = test system: HT29 colon
IGROV1 ovarian = test system: IGROV1 ovarian
K-562 leukemia = test system: K-562 leukemia
KM12 colon = test system: KM12 colon
LOX IMVI melanoma = test system: LOX IMVI melanoma
M14 melanoma = test system: M14 melanoma
MALME-3M melanoma = test system: MALME-3M melanoma
MCF7 breast = test system: MCF7 breast
MDA-MB-231 breast = test system: MDA-MB-231 breast
MDA-MB-435 = test system: MDA-MB-435
MOLT-4 leukemia = test system: MOLT-4 leukemia
NCI-H226 lung = test system: NCI-H226 lung
NCI-H23 lung = test system: NCI-H23 lung
NCI-H460 lung = test system: NCI-H460 lung
NCI-H522 lung = test system: NCI-H522 lung
NCI/ADR-RES ovarian = test system: NCI/ADR-RES ovarian
OVCAR-3 ovarian = test system: OVCAR-3 ovarian
OVCAR-4 ovarian = test system: OVCAR-4 ovarian
OVCAR-5 ovarian = test system: OVCAR-5 ovarian
OVCAR-8 ovarian = test system: OVCAR-8 ovarian
PC-3 prostate = test system: PC-3 prostate
RPMI-8226 leukemia = test system: RPMI-8226 leukemia
RXF 393 renal = test system: RXF 393 renal
SF-268 CNS = test system: SF-268 CNS
SF-295 CNS = test system: SF-295 CNS
SF-539 CNS = test system: SF-539 CNS
SK-MEL-2 melanoma = test system: SK-MEL-2 melanoma
SK-MEL-28 melanoma = test system: SK-MEL-28 melanoma
SK-MEL-5 melanoma = test system: SK-MEL-5 melanoma
SK-OV-3 ovarian = test system: SK-OV-3 ovarian
SN12C renal = test system: SN12C renal
SNB-19 CNS = test system: SNB-19 CNS
SR leukemia = test system: SR leukemia
SW-620 colon = test system: SW-620 colon
U251 CNS = test system: U251 CNS
UACC-257 melanoma = test system: UACC-257 melanoma
UACC-62 melanoma = test system: UACC-62 melanoma
UO-31 renal = test system: UO-31 renal

CC(=O)c1cc(C(=O)c2ccc3c(c2)Sc2ccccc2N3)n2ccccc12
21.3 nM and 9.93 nM: TGI (COLO 205 colon)
4.53 nM and < 3.32 nM: TGI (MDA-MB-435)
20500 nM: TGI (RXF 393 renal)
818 nM and 742 nM: TGI (SK-MEL-5 melanoma)
1860 nM: TGI (NCI/ADR-RES ovarian)
16400 nM: TGI (U251 CNS)
5.17 nM: TGI (NCI-H522 lung)
> 33200 nM: TGI (A549 NSCLC) | TGI (BT-549 breast) | TGI (CAKI-1 renal) | TGI (CCRF-CEM leukemia) | TGI (DU-145 prostate) | TGI (EKVX NSCLC) | TGI (HCC-2998 colon) | TGI (HCT-15 colon) | TGI (HOP-62 NSCLC) | TGI (HS 578T breast) | TGI (IGROV1 ovarian) | TGI (K-562 leukemia) | TGI (LOX IMVI melanoma) | TGI (M14 melanoma) | TGI (MCF7 breast) | TGI (MOLT-4 leukemia) | TGI (NCI-H226 lung) | TGI (NCI-H23 lung) | TGI (OVCAR-5 ovarian) | TGI (OVCAR-8 ovarian) | TGI (PC-3 prostate) | TGI (SF-268 CNS) | TGI (SK-MEL-28 melanoma) | TGI (SN12C renal) | TGI (SR leukemia) | TGI (SW-620 colon) | TGI (UACC-257 melanoma) | TGI (UACC-62 melanoma) | TGI (UO-31 renal)
9.49 nM and 10.3 nM: TGI (SF-539 CNS)
76 nM: TGI (SF-295 CNS)
active: GI50 (786-0 renal) 4.59 nM | GI50 (A498 renal) 2.25 nM and 3.32 nM | GI50 (A549 NSCLC) 6.13 nM and 3.32 nM | GI50 (ACHN renal) 5.45 nM | GI50 (BT-549 breast) 7.73 nM and 26.2 nM | GI50 (CAKI-1 renal) 3.68 nM and 3.69 nM | GI50 (CCRF-CEM leukemia) 3.3 nM and 3.32 nM | GI50 (COLO 205 colon) 3.27 nM and 3.32 nM | GI50 (DU-145 prostate) 5.14 nM and 3.32 nM | GI50 (EKVX NSCLC) 29.1 nM and 4.98 nM | GI50 (HCC-2998 colon) 19.9 nM and 29.5 nM | GI50 (HCT-116 colon) 3.98 nM and 3.32 nM | GI50 (HCT-15 colon) 4.72 nM and 3.32 nM | GI50 (HL-60(TB) leukemia) 2.37 nM | GI50 (HOP-62 NSCLC) 3.99 nM and 3.32 nM | GI50 (HS 578T breast) 3.75 nM and 3.32 nM | GI50 (HT29 colon) 3.5 nM and 3.32 nM | GI50 (IGROV1 ovarian) 8.97 nM and 25.8 nM | GI50 (K-562 leukemia) 3.85 nM and 3.32 nM | GI50 (KM12 colon) 4.41 nM | GI50 (LOX IMVI melanoma) 5.87 nM and 3.32 nM | GI50 (M14 melanoma) 3.38 nM and 3.32 nM | GI50 (MALME-3M melanoma) 4.87 nM | GI50 (MCF7 breast) 3.44 nM and 3.32 nM | GI50 (MDA-MB-231 breast) 6.51 nM and 20.3 nM | GI50 (MDA-MB-435) 1.8 nM and < 3.32 nM | GI50 (MOLT-4 leukemia) 6.23 nM and 3.32 nM | GI50 (NCI-H23 lung) 7.73 nM and 3.32 nM | GI50 (NCI-H460 lung) 3.39 nM and 3.32 nM | GI50 (NCI-H522 lung) 1.77 nM | GI50 (NCI/ADR-RES ovarian) 3.93 nM and 3.32 nM | GI50 (OVCAR-3 ovarian) 3.65 nM | GI50 (OVCAR-4 ovarian) 14.5 nM | GI50 (OVCAR-5 ovarian) 37.6 nM and 199 nM | GI50 (OVCAR-8 ovarian) 7.52 nM and 3.32 nM | GI50 (PC-3 prostate) 4.53 nM and 3.32 nM | GI50 (RPMI-8226 leukemia) 5.85 nM and 3.32 nM | GI50 (RXF 393 renal) 3.32 nM | GI50 (SF-295 CNS) 2.84 nM | GI50 (SF-539 CNS) 2.78 nM and 3.32 nM | GI50 (SK-MEL-2 melanoma) 4.77 nM | GI50 (SK-MEL-5 melanoma) 5.26 nM and 3.32 nM | GI50 (SK-OV-3 ovarian) 4.38 nM and 3.32 nM | GI50 (SNB-19 CNS) 8.24 nM | GI50 (SR leukemia) 4.59 nM and 3.32 nM | GI50 (SW-620 colon) 3.63 nM and 3.32 nM | GI50 (U251 CNS) 4.92 nM and 3.32 nM | GI50 (UACC-257 melanoma) 3.32 nM | GI50 (UACC-62 melanoma) 2.93 nM and 3.32 nM | GI50 (UO-31 renal) 5.79 nM and 3.32 nM
20600 nM: TGI (RPMI-8226 leukemia)
14500 nM: TGI (HOP-92 NSCLC)
5.6 nM: TGI (HL-60(TB) leukemia)
21500 nM: TGI (SK-OV-3 ovarian)
